The values that follow come from US9387195B2, “Methods for treating diseases using isoindoline compounds” (Celgene Corporation, priority 2011, dated 2016).

The test system of assay [1] is IFN-α production. Kind of assay: IFN-α ELISA, CpG-A stimulated human PBMCs or pDCs (Example 15). The class given is cell-based. As for the experimental part:
(§1) The IFN-α and TNF-α levels were measured by enzyme-linked immunoabsorbant assay (ELISA) obtained from R&D System, Minneapolis, Minn., known as Human IFN-alpha ELISA Kit (PBL Interferon Source, Cat #41100-1) and Human TNF-alpha Quantikine ELISA Kit (ThermoScientific, Cat # EH3TNFA5) respectively. […] Compounds were diluted with DMSO (PBMCs) or media (pDCs) from a 4 mM stock of each compound to obtain different concentrations. Human PBMCs or pDCs were pretreated with different concentrations of compounds for an hour prior stimulation. Cells were then stimulated with 1 μM (PBMCs) or 10 μM (PDCs) CpG-A ODN 2216 for 18 hours. The samples with Compound (II) (0.25 μM, 0.5 μM and 1 μM) are labeled as Examples B1-B3; the samples with Compound (I) (0.25 μM, 0.5 μM and 1 μM) are labeled as Examples B4-B6; the samples with CC-930 (1.0 μM, 2.0 μM and 3.0 μM) are labeled as Examples B7-B9; and the samples with chloroquine (0.5 μM, 1.0 μM and 2.0 μM) are labeled as Examples B10-B12. Keratinocytes of samples (Examples B1-B12) cultured in the presence of pDCs were stimulated with CpG-A oligonucleotide. Two control experiments were done. The first control experiment (Control BB1) was done with similar procedures mentioned-above but without CpG-A stimulation and without the addition of inhibitors. The second control experiment (Control BB2) was done with similar procedures mentioned-above but without the addition of inhibitors. Supernatant was collected after 18 hours. IFN-α and TNF-α levels were assayed by ELISA according to manufacturer's instructions.
On the technique in general: An ELISA detects its analyte on a solid surface through an enzyme-linked reagent.

In assay [2] the test system is TNF-α production. Kind of assay: TNF-α ELISA, CpG-A stimulated human PBMCs or pDCs (Example 15). The class given is cell-based. The protocol:
as §1

The test system of assay [3] is keratinocyte MxA. Kind of assay: pDC-keratinocyte co-culture with CpG-A stimulation, keratinocyte MxA level (Example 16). The following applies: for decrease in the keratinocyte MxA level: relative to Control BB2. The format is cell-based, human. As for the experimental part:
(§2) The Human pDC/HEKa Coculture involves stimulation with CpG-A oligodeoxynucleotide. CpG-A-stimulation would induce pDCs to secrete interferon-alpha (IFN-α) which in turn elicits increased expression of MxA protein from keratinocytes. HEKa were plated in 6-well plates at density of 1×10^5 cells/well and incubated overnight in a defined keratinocyte medium. The medium was removed in the next day and then 1.8×10^5 pDC cells, in defined pDC medium, were overlaid on the HEKa cells. Compound (II) was added to the medium to obtain final concentrations of 0.25 μM, 0.5 μM and 1 μM. One hour after the addition of Compound (II), CpG-A was added to each of the concentrations and then incubated overnight. Same samples from Example 15 were used here.
(§3) The cells were fixed and immunostained the co-cultures with antibodies to keratinocyte myxovirus resistance protein A (MxA) and Cytokeratin as follows using the ThermoScientific Cellomics High Content Screening (HCS) Readers using vHCS Scan Software.
(§4) Eighteen hours after the addition of Compound (II), cocultures were fixed for 30 minutes with BD fixation/permeabilization buffer, washed, and blocked with 2% normal goat serum/bovine serum albumin solution for an hour. Cocultures were then incubated overnight with primary antibodies to MxA and Cytokeratin. Cells were washed and incubated for an hour with Alexa anti-goat and anti-rabbit fluorescein (IgG1) or TRITC-conjugated (IgG) secondary antibodies. […] Cocultures were washed and incubated in 1X phosphate buffered saline (PBS) and plates scanned using Thermo Scientific ArrayScan VTI HCS Reader, a modular High Content Screening instrument designed for high-capacity automated fluorescence imaging and quantitative analysis of fixed and live cells. The output was analyzed using Cellomics Compartmental Analysis algorithm to quantitate fluorescence levels in the green and red channels. […] Mean fluorescence intensity levels of MxA and Cytokeratin of the samples were expressed as percentage of mean fluorescence intensity levels of MxA and cytokeratin of Control BB2. […]

Assay [4] relates to keratinocyte cytokeratin. Kind of assay: pDC-keratinocyte co-culture with CpG-A stimulation, cytokeratin level (Example 16). The format is cell-based, human. The following applies: relative to Control BB2. As for the experimental part: as §2, §3, §4
Assay [5] relates to IFN-α production. Kind of assay: IFN-α ELISA in CpG-A stimulated hPBMC (Example 18). The class given is cell-based, human. The conditions noted are these: 1 μM CpG-A, 18 hours. As for the experimental part: Human PBMCs (1×10^5 cells) were plated in 96-well plates (PBMCs) in RPMI media containing 10% FBS. Compounds were diluted with DMSO from a 4 mM stock of each compound to obtain different concentrations. Human PBMCs were pretreated with different concentrations of compounds for an hour prior stimulation. Cells were then stimulated with CpG-A ODN 2216 (1 μM) for 18 hours. […] The samples (Control E1 and Examples E2-E20) contained 1 μM CpG-A. Supernatant was collected after 18 hours. The IFN-α levels of samples were measured by the IFN-α ELISA obtained from PBL Interferon Source, Piscataway, N.J., known as Human IFN-alpha ELISA Kit. IFN-α levels of samples were assayed by the ELISA according to manufacturer's instructions. Inhibition of the production of IFN-α by individual compounds were determined in the CpG-A stimulated hPBMC cultures.

Assay [6] deals with keratinocyte MxA. Kind of assay: Human pDC/HEKa coculture with CpG-A stimulation, keratinocyte MxA level (Example 14). The following applies: relative to CpG-A stimulated Example A1. The class given is cell-based. The protocol:
as §2, with “CpG-A oligodeoxynucleotide 2216. The CpG-A stimulation” for “CpG-A oligodeoxynucleotide. CpG-A-stimulation”, “0.5 μM, 1” for “0.5”, “and 2” for “and 1”, “of these” for “of the”, “overnight.” for “overnight. Same samples from Example 15 were used here.”
as §3
Eighteen hours after the addition of Compound (II), cocultures were fixed for 30 minutes with BD fixation/permeabilization buffer, washed, and blocked with 2% normal goat serum/bovine serum albumin solution for an hour. Cocultures were then incubated overnight with primary antibodies to MxA and Cytokeratin. Cells were washed and incubated for an hour with Alexa anti-goat and anti-rabbit fluorescein (IgG1) or TRITC-conjugated (IgG) secondary antibodies. Nuclei were stained with DAPI or 4′,6-diamidino-2-phenylindole. Cocultures were washed and incubated in 1X phosphate buffered saline (PBS) and plates scanned using Thermo Scientific ArrayScan VTI HCS Reader, a modular High Content Screening instrument designed for high-capacity automated fluorescence imaging and quantitative analysis of fixed and live cells. The output was analyzed using Cellomics Compartmental Analysis algorithm to quantitate fluorescence levels in the green and red channels. Data was exported to Microsoft Excel worksheets. Mean fluorescence intensity levels of MxA and Cytokeratin of the samples were expressed as percentage of mean fluorescence intensity levels of MxA and cytokeratin of Example A1. Histograms were generated and statistical analysis was performed using GraphPad Prism v4.0 (GraphPad Software, Inc., San Diego, Calif.).
FIGS. 1-2 show the levels of keratinocyte MxA and cytokeratin of the samples averaged from four independent experiments relative to the keratinocyte MxA and cytokeratin levels of Example A1 with pDCs derived from separate donors. […]

Assay [7] concerns cytokeratin. Kind of assay: Human pDC/HEKa coculture with CpG-A stimulation, cytokeratin level (Example 14). The format is cell-based. The conditions noted are these: 0.25-2 μM; relative to Example A1. The protocol:
The Human pDC/HEKa Coculture involves stimulation with CpG-A oligodeoxynucleotide 2216. The CpG-A stimulation would induce pDCs to secrete interferon-alpha (IFN-α) which in turn elicits increased expression of MxA protein from keratinocytes. HEKa were plated in 6-well plates at density of 1×10^5 cells/well and incubated overnight in a defined keratinocyte medium. The medium was removed in the next day and then 1.8×10^5 pDC cells, in defined pDC medium, were overlaid on the HEKa cells. Compound (II) was added to the medium to obtain final concentrations of 0.25 μM, 0.5 μM, 1 μM and 2 μM. […]
as §3
Eighteen hours after the addition of Compound (II), cocultures were fixed for 30 minutes with BD fixation/permeabilization buffer, washed, and blocked with 2% normal goat serum/bovine serum albumin solution for an hour. […] Cocultures were washed and incubated in 1X phosphate buffered saline (PBS) and plates scanned using Thermo Scientific ArrayScan VTI HCS Reader, a modular High Content Screening instrument designed for high-capacity automated fluorescence imaging and quantitative analysis of fixed and live cells. […]

Setting [8] is: 0.25, 0.5 and 1 μM, relative to CpG-A stimulation (Control BB2), P<0.0001.
Setting [9] is: 0.25, 0.5 and 1 μM, relative to CpG-A stimulation (Control BB2).
Setting [10] is: 1.0, 2.0 and 3.0 μM (Examples B7-B9), relative to Control BB2.
Setting [11] is: Homo sapiens, PBMC, read-out: inhibition of the production of IFN-α.

Turning to `CCOc1cc(C(CS(C)(=O)=O)N2C(=O)c3cccc(NC(C)=O)c3C2=O)ccc1OC` (single isomer, unassigned; (+)) [Compound (I), (+)-2-[1-(3-ethoxy-4-methoxyphenyl)-2-methylsulfonylethyl]-4-acetylaminoisoindoline-1,3-dione], the “inhibition of the production of IFN-α” value in assay [1] (setting [8]) is given as “inhibited”; in assay [5] (0.5 μM, versus Control E1), “significant inhibition”; in assay [5] (5 μM, versus Control E1), “significant inhibition”. Moreover, in assay [2] (setting [9]), the “inhibition of the production of TNF-α” value is listed as “inhibited”. In assay [3] (0.25, 0.5 and 1 μM (Examples B4-B6)), the “ability to inhibit the production of the keratinocyte MxA, among the compounds tested” value is reported as “greatest ability to inhibit”. Moreover, the “effect on the keratinocyte cytokeratin” value in assay [4] was “no significant effect”.

For `O[C@H]1CC[C@H](Nc2ncc3nc(Nc4c(F)cc(F)cc4F)n([C@H]4CCOC4)c3n2)CC1` [CC-930, reference compound], the “inhibition of the production of IFN-α” value in assay [1] (setting [10]) is “approximately 25%”; in assay [5] (10 μM, versus Control E1), “inhibited”. Besides, in assay [2] (setting [10]), the “inhibition of the production of TNF-α” value was “approximately 25%”. The “decrease in the keratinocyte MxA level” value in assay [3] (1 μM, P<0.05) is reported as 32%. Also, in assay [4], the “effect on the keratinocyte cytokeratin” value was “no significant effect”.

The term inhibition denotes the percentage by which the read-out fell short of the control. In the case of `CCN(CC)CCCC(C)Nc1ccnc2cc(Cl)ccc12` (stereo not drawn) [Chloroquine, chloroquine], in assay [1] (setting [11]), the inhibition at 1 µM is around 75% and the inhibition at 2 µM was around 75%. Also, the inhibition at 2 µM in assay [2] (Homo sapiens, PBMC, read-out: inhibition of the production of TNF-α) was around 50%. Also, in assay [5] (5 μM, versus Control E1), the “inhibition of the production of IFN-α” value is listed as “induced inhibition”.

Regarding `CCOc1cc([C@@H](CS(C)(=O)=O)N2Cc3cccc(NC(=O)C4CC4)c3C2=O)ccc1OC` [Compound (II), Cyclopropyl{2-[(1S)-1-(3-ethoxy-4-methoxyphenyl)-2-(methylsulfonyl)ethyl]-3-oxoisoindolin-4-yl}carboxamide], the “decrease in the keratinocyte MxA protein levels” value in assay [6] (0.25 μM) came to 19%; in assay [6] (0.5 μM), 39%. The “decrease in keratinocyte MxA levels” value is given as 29% in assay [6] (1 μM) and 40% in assay [6] (2 μM). For the same molecule, the “effect on the cytokeratin levels on the keratinocytes” value in assay [7] was “no effect”. The “inhibition of the production of IFN-α” value was “inhibited” in assay [1] (setting [8]); “significant inhibition” in assay [5] (0.5 μM, versus Control E1); “significant inhibition” in assay [5] (5 μM, versus Control E1). Besides, the “inhibition of the production of TNF-α” value in assay [2] (setting [9]) is reported as “inhibited”. The “decrease in the keratinocyte MxA level” value in assay [3] (0.25, 0.5 and 1 μM (Examples B1-B3)) is listed as 13-15%. Moreover, the “effect on the keratinocyte cytokeratin” value in assay [4] is “no significant effect”.

For the molecule `Nc1cccc2c1CN(C1CCC(=O)NC1=O)C2=O` (stereo not drawn) [Lenalidomide, lenalidomide], in assay [5] (10 μM, versus Control E1), the “inhibition of the production of IFN-α” value is “did not affect”.

On to `CCN(CC)CCCC(C)Nc1c2ccc(Cl)cc2nc2ccc(OC)cc12` (stereo not drawn) [Quinacrine, quinacrine], for which the “inhibition of the production of IFN-α” value in assay [5] (0.5 and 5 μM (Examples E19-E20)) was “inhibited”.

Turning to `CCN(CCO)CCCC(C)Nc1ccnc2cc(Cl)ccc12` (stereo not drawn) [hydroxychloroquine], the “inhibition of the production of IFN-α” value in assay [5] (5 μM, versus Control E1) is “induced inhibition”.

On to `O=C1CCC(N2C(=O)c3ccccc3C2=O)C(=O)N1` (stereo not drawn) [thalidomide], for which the “inhibition of the production of IFN-α” value in assay [5] (10 μM, versus Control E1) is given as “did not affect”.
